Test results reported in patent publication US4528375A, “Substituted 3,4-diamino-1,2,5-thiadiazoles having histamine H2 -receptor antagonist activity” (Bristol-Myers Company, priority 1984, dated 1985).

Tests used:
gastric acid secretion = assay: Gastric Antisecretory Activity in the Gastric Fistula Rat; type: in vivo, Male Long Evans rats; details: sc; for Potency Ratio (cimetidine = 1.0): gastric fistula rat, relative to cimetidine
peptic ulcer disease = details: clinical evaluation, Gray et al., Lancet, 1, 8001 (1977); cited from earlier work

Compound	ED50 (gastric acid secretion; Rattus norvegicus, read-out: ED50 sc) [µmol/kg]	effectiveness in the treatment of peptic ulcer disease (peptic ulcer disease)	Potency Ratio (cimetidine = 1.0) (gastric acid secretion)
CN/C(=N/CCSCc1nc[nH]c1C)NC#N [cimetidine, reference compound]	3.48	effective therapeutic agent in the treatment of peptic ulcer disease	–
Cc1cc(CSCCNc2nsnc2N)sc1CN(C)C [Example 3, 3-Amino-4-{2-[(5-dimethylaminomethyl-4-methyl-2-thienyl)methylthio]ethylamino}-1,2,5-thiadiazole]	–	–	~ 7
CN(C)Cc1ccc(CSCCNc2nsnc2N)o1 [Example 2, 3-Amino-4-{2-[(5-dimethylaminomethyl-2-furyl)methylthio]ethylamino}-1,2,5-thiadiazole]	–	–	4.5
Nc1nsnc1NCCCOc1cccc(CN2CCCC2)c1 [Example 4, 3-Amino-4-[3-(3-pyrrolidinomethylphenoxy)propylamino]-1,2,5-thiadiazole]	–	–	20
Nc1nsnc1NCCCOc1cccc(CN2CCCCC2)c1 [Example 1, 3-Amino-4-[3-(3-piperidinomethylphenoxy)propylamino]-1,2,5-thiadiazole]	–	–	37
